The target of test [1] is T1, 5-hydroxytryptamine receptor 1A (Rattus norvegicus, UniProt P19327).
T1 sequence (P19327 whole entry): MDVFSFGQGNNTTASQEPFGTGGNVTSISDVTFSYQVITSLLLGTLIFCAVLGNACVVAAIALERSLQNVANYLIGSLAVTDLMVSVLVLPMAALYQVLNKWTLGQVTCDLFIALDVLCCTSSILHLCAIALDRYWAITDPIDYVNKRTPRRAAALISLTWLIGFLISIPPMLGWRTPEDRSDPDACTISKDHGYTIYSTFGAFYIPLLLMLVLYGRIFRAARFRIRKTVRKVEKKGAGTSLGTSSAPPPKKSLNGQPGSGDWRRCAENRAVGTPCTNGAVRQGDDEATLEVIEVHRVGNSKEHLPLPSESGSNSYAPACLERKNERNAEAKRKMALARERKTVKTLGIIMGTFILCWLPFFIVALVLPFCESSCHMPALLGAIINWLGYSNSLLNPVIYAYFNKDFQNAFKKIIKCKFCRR
The test is described as follows: Binding affinity towards serotonin 5-HT1A receptor was determined in rat hippocampus using [3H]8-OH-DPAT as ligand. It is filed as tissue-based.

For test [2], the system named is Rattus norvegicus. The experiment in a line: Compound at an intraperitoneal dose of 80 mg/Kg was tested for the inhibition of apomorphine-induced stereotypy in rat. In kind it is functional. Also noted: scale not given: the % may be the effect or the level left.
A short description of test [3]: Compound at an intraperitoneal dose of 40 mg/Kg was tested for the inhibition of apomorphine-induced stereotypy in rat. In kind it is functional. The arrangement: scale not given: the % may be the effect or the level left.
In a further test the target is D(2) dopamine receptor (Rattus norvegicus, UniProt P61169). The experiment in a line: Binding affinity towards Dopamine receptor D2 was determined in rat striatum using [3H]- spiperone as radioligand. In kind it is tissue-based.
Test [4] addresses Serotonin 2 (5-HT2) receptor (Rattus norvegicus, UniProt P30994+P08909+P14842). The experiment in a line: Binding affinity towards serotonin 5-HT2 receptor was determined in rat cortex using [3H]spiperone as ligand.
Test [5] deals with Rattus norvegicus. The experiment in a line: Percentage change in chronic single unit sampling when compound given at a dose of 10 mg/kg ip in rats(Expt-2). In kind it is functional. The note with it: route intraperitoneal.
For test [6], the target named is T2, 5-hydroxytryptamine receptor 2A (Homo sapiens, UniProt P28223). The test is described as follows: Inhibitory concentration against human 5-HT2A receptor in BEK cells. It is filed as cell-based.
For test [7], the system named is Rattus norvegicus. The test is described as follows: Percentage change in Social interaction when compound administered at a doe of 1.25 mg/kg ip in rats. As to conditions: route intraperitoneal. It is filed as functional.
The test system of test [8] is Rattus norvegicus. The experiment in a line: Total activity (anti psychotic) when compound administered at a doe of 1.25 mg/kg ip in rats. As to conditions: route intraperitoneal. In kind it is functional.
The test system of test [9] is Rattus norvegicus. The test is described as follows: Percentage change in chronic single unit sampling when compound given at a dose of 10 mg/kg ip in rats. It is filed as functional. The note with it: route intraperitoneal.
The test system of test [10] is Rattus norvegicus. The experiment in a line: Percentage change in Social interaction when compound administered at a doe of 2.5 mg/kg ip in rats. In kind it is functional. As to conditions: route intraperitoneal.
Test [11] concerns Rattus norvegicus. The test is described as follows: Total activity (anti psychotic) when compound administered at a doe of 2.5 mg/kg ip in rats. In kind it is functional. The note with it: route intraperitoneal.
Test [12] has as its system Rattus norvegicus. The test is described as follows: Percentage change in chronic single unit sampling when compound given at a dose of 20 mg/kg ip in rats (Expt-2). In kind it is functional. The note with it: route intraperitoneal.
Test [13] concerns the target T2, 5-hydroxytryptamine receptor 2A. The experiment in a line: Binding affinity towards human 5-HT2A receptor in BEK cells. In kind it is cell-based.
For test [14], the system named is Rattus norvegicus. The experiment in a line: Percentage change in Total activity (anti psychotic) when compound administered at a doe of 1.25 mg/kg ip in rats. It is filed as functional. The note with it: route intraperitoneal.
The test system of test [15] is Rattus norvegicus. The test is described as follows: Percentage change in chronic single unit sampling when compound given at a dose of 20 mg/kg ip in rats. As to conditions: route intraperitoneal. In kind it is functional.
Test [16] has as its target T3, D(4) dopamine receptor (Homo sapiens, UniProt P21917).
T3 sequence (P21917 whole entry): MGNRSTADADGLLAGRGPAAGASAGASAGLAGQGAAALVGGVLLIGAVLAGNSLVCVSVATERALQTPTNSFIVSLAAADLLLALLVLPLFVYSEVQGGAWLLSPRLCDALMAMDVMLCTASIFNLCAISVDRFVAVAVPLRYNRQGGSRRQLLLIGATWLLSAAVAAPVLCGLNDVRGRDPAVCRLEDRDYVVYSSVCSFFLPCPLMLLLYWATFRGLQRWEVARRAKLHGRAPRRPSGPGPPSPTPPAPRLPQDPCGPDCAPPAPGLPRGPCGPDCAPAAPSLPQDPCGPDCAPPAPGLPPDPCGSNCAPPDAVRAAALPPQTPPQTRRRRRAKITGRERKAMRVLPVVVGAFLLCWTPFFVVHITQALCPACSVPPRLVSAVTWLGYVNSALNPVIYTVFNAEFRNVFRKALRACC
Description: Inhibitory concentration against human Dopamine receptor D4.2 in CHO cells

The test system of test [17] is Rattus norvegicus. The test is described as follows: Anti psychotic effect Social interaction when compound administered at a doe of 2.5 mg/kg ip in rats. In kind it is functional. As to conditions: route intraperitoneal.
Test [18] has as its system Rattus norvegicus. The test is described as follows: Percentage change in Total activity (anti psychotic) when compound administered at a doe of 2.5 mg/kg ip in rats. It is filed as functional. As to conditions: route intraperitoneal.
Test [19] has as its system Rattus norvegicus. The experiment in a line: Anti psychotic effect Social interaction when compound administered at a doe of 1.25 mg/kg ip in rats. It is filed as functional. The note with it: route intraperitoneal.
Test [20] addresses T3, D(4) dopamine receptor. The experiment in a line: Binding affinity against human Dopamine receptor D4.2 in CHO cells. It is filed as cell-based.
For test [21], the system named is Rattus norvegicus. The experiment in a line: Percentage change in Total activity (anti psychotic) when compound administered at a doe of 5 mg/kg ip in rats. The note with it: route intraperitoneal. It is filed as functional.
Test [22] concerns Rattus norvegicus. The test is described as follows: Percentage change in Social interaction when compound administered at a doe of 5 mg/kg ip in rats. In kind it is functional. The note with it: route intraperitoneal.
The test system of test [23] is Rattus norvegicus. The experiment in a line: Anti psychotic effect Social interaction when compound administered at a doe of 5 mg/kg ip in rats. It is filed as functional. The note with it: route intraperitoneal.
The test system of test [24] is Rattus norvegicus. The experiment in a line: Percentage change in Total activity (anti psychotic) when compound administered at a doe of 10 mg/kg ip in rats. The note with it: route intraperitoneal. It is filed as functional.
Test [25] has as its system Rattus norvegicus. The test is described as follows: Total activity (anti psychotic) when compound administered at a doe of 5 mg/kg ip in rats. It is filed as functional. As to conditions: route intraperitoneal.
Test [26] deals with Rattus norvegicus. The experiment in a line: Total activity (anti psychotic) when compound administered at a doe of 10 mg/kg ip in rats. The note with it: route intraperitoneal. It is filed as functional.
The test system of test [27] is Rattus norvegicus. The test is described as follows: Percentage change in Social interaction when compound administered at a doe of 10 mg/kg ip in rats. As to conditions: route intraperitoneal. It is filed as functional.
In test [28] the test system is Rattus norvegicus. The test is described as follows: Anti psychotic effect Social interaction when compound administered at a doe of 10 mg/kg ip in rats. In kind it is functional. The note with it: route intraperitoneal.
The test system of test [29] is Rattus norvegicus. The experiment in a line: Anti psychotic effect Social interaction when compound administered at a doe of 0.125 mg/kg ip in rats. The note with it: route intraperitoneal. It is filed as functional.
Test [30] concerns Rattus norvegicus. The test is described as follows: Percentage change in chronic single unit sampling when compound given at a dose of 0.5 mg/kg ip in rats (Expt-2). In kind it is functional. As to conditions: route intraperitoneal.
Test [31] has as its system Rattus norvegicus. The experiment in a line: Percentage change in chronic single unit sampling when compound given at a dose of 0.5 mg/kg ip in rats. In kind it is functional. As to conditions: route intraperitoneal.
The nature of test [32]: Intraperitoneal effective dose required for inhibition of apomorphine-induced stereotypy in rat. The note with it: ip. In kind it is functional.
Test [33] relates to Rattus norvegicus. The experiment in a line: Percentage change in Total activity (anti psychotic) when compound administered at a doe of 0.125 mg/kg ip in rats. It is filed as functional. As to conditions: route intraperitoneal.
In test [34] the test system is Rattus norvegicus. The test is described as follows: Percentage change in Total activity (anti psychotic) when compound administered at a doe of 0.05 mg/kg ip in rats. As to conditions: route intraperitoneal. In kind it is functional.
The test system of test [35] is Rattus norvegicus. The test is described as follows: Anti psychotic effect Social interaction when compound administered at a doe of 0.05 mg/kg ip in rats. It is filed as functional. As to conditions: route intraperitoneal.
For test [36], the system named is Rattus norvegicus. The test is described as follows: Percentage change in Social interaction when compound administered at a doe of 0.05 mg/kg ip in rats. It is filed as functional. The note with it: route intraperitoneal.
Test [37] has as its system Rattus norvegicus. The test is described as follows: Percentage change in Social interaction when compound administered at a doe of 0.125 mg/kg ip in rats. In kind it is functional. As to conditions: route intraperitoneal.
Test [38] concerns Rattus norvegicus. The test is described as follows: Total activity (anti psychotic) when compound administered at a doe of 0.125 mg/kg ip in rats. As to conditions: route intraperitoneal. In kind it is functional.

The record followed here is ChEMBL document CHEMBL1129432, “Structure-activity relationships of a series of novel (piperazinylbutyl)thiazolidinone antipsychotic agents related to 3-[4-[4-(6-fluorobenzo[b]thien-3-yl)-1-piperazinyl]butyl]-2,5,5- trimethyl-4-thiazolidinone maleate” (J Med Chem, 1996).

One may read the IC50 as the concentration at which inhibition is half-maximal. The Ki is the equilibrium dissociation constant of an inhibitor or competing ligand from its target. Broadly, the ED50 is the dose that gives a 50% effect, or the effect in half of the subjects.

D(2) dopamine receptor, sequence (P61169 whole entry): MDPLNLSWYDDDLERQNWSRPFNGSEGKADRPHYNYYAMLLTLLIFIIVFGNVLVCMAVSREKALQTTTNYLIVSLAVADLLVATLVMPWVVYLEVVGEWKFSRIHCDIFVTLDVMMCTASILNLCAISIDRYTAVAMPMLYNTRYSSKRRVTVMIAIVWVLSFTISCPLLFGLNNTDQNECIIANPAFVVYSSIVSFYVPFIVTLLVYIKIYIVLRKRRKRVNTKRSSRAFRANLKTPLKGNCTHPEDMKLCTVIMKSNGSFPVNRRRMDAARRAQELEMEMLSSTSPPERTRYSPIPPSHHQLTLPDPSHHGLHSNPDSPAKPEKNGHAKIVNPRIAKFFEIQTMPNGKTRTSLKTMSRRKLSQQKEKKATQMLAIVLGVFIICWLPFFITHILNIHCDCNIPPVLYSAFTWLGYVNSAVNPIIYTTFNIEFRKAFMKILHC
T2 sequence (P28223 whole entry): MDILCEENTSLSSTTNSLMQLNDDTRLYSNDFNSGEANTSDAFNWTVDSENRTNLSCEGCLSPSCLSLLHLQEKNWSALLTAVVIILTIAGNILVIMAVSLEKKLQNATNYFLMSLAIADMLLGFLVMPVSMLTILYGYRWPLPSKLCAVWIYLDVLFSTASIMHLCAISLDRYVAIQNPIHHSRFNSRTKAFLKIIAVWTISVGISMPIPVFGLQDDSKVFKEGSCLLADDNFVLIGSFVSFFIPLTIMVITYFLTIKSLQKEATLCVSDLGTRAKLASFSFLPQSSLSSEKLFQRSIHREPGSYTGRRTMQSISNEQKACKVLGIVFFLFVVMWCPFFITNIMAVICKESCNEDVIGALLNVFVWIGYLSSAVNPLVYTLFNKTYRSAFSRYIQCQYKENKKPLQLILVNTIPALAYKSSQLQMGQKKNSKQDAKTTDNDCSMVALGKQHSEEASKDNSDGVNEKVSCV

With `O=C1N(CCCCN2CCN(c3nsc4ccccc34)CC2)CSC12Cc1ccccc1C2`, the results for the IC50 (in test [1]; at D(2) dopamine receptor; in [4]) were 52 nM, 697 nM and 1110 nM, respectively. Besides, the Activity came out at 50% with Rattus norvegicus [2] and 0% in test [3].

For the molecule `CC1SC(C)(C)C(=O)N1CCCCN1CCN(c2cn(-c3ccccc3)c3ccccc23)CC1` (centres undefined), the IC50 was determined as 2550 nM in [1], 200 nM on D(2) dopamine receptor and 186 nM in test [4]. Also, the Activity with Rattus norvegicus [2] turned out to be 67%; in [3] it was 0%.

Take `CC1SC(C)(C)C(=O)N1CCCCN1CCN(c2csc3cc(F)ccc23)CC1` (centres undefined): the IC50 in test [1] amounted to 61 nM; in test [6], 17 nM; against D(4) dopamine receptor [16] it was 29 nM; in test [4], 56 nM. The Change in the test on Rattus norvegicus [5] is reported as 14%; in the test on Rattus norvegicus [7] it was 14%; with Rattus norvegicus [9], -34%; in the test with Rattus norvegicus [10], 9%; in the test on Rattus norvegicus [12], 32%; in the test with Rattus norvegicus [14], 1%. Moreover, the figures for the Change in the test with Rattus norvegicus [15] and in the test on Rattus norvegicus [18] were -57% and -32%, respectively. Also, the Total activity in the test with Rattus norvegicus [8] turned out to be 144.3; in the test on Rattus norvegicus [11], 96. In addition, the Ki in test [13] was found to be 8 nM; on D(4) dopamine receptor [20] it was 5 nM. Besides, the results for the Social interaction with Rattus norvegicus [17] and with Rattus norvegicus [19] were 109.1 and 114, respectively.

Turning to `CN1CCN(C2=Nc3cc(Cl)ccc3Nc3ccccc32)CC1` [CLOZAPINE], the Change is -18% in the test on Rattus norvegicus [21]; 14% with Rattus norvegicus [22]; -15% in the test with Rattus norvegicus [24]; 40% with Rattus norvegicus [27]; 37% in the test on Rattus norvegicus [12]; -79% with Rattus norvegicus [15]. Also, the Social interaction in the test with Rattus norvegicus [23] came out at 123.3; in the test on Rattus norvegicus [28], 151.3. The molecule further had an Activity in [3] of 33%. The Total activity in the test with Rattus norvegicus [25] is recorded as 140.3; with Rattus norvegicus [26] it was 146.3.

As to `O=C(CCCN1CCC(O)(c2ccc(Cl)cc2)CC1)c1ccc(F)cc1` [HALOPERIDOL], the Social interaction in the test on Rattus norvegicus [29] is reported as 65.6; in the test on Rattus norvegicus [35], 77.2. For the same molecule, the Change with Rattus norvegicus [30] was -30%; with Rattus norvegicus [31], -35%; with Rattus norvegicus [33] it was -22%; in the test with Rattus norvegicus [34], -11%; in the test on Rattus norvegicus [36], -19%; with Rattus norvegicus [37], -32%. In [32], this molecule displayed an ED50 of 0.6 mg/kg. The Total activity in the test on Rattus norvegicus [38] worked out at 112.3.
